Biological target: hCereblon(M1-L442)_hDDB1(M1-H1140) (Homo sapiens (Human), UniProt Q96SW2)
Assay: Fluorescence direct binding protocol (tryptophan fluorescence titration)
Details: 20° C., excited at 280 nm, recorded at 340 nm, assay buffer 50 mM Hepes 7.4 200 mM NaCl; read-out: Fluorescence h-Cereblon_DDB1 Mean Kd_EQ
Protocol: Fluorescence Direct Binding Protocol
Determination of the affinities of compounds to protein containing one or more tryptophan is measurable by monitoring the fluorescence emission in direct mode. The measurements depending on the protein available amounts are performed either manually in a cuvette on ISS-PC1 photon counting spectrofluorometer or automatically in well plates on a fluorescence plate reader device. Fluorescence titrations are performed at 20° C. in the chosen binding assay buffer by using a defined constant protein concentration against ligand concentration variations. Small aliquots of known ligand concentration solubilized in DMSO were added and the fluorescence, excited at 280 nm, was recorded at 340 nm. The fluorescence intensity was corrected for protein dilution and for the filter effect (Birdsall et al.^72).
1) Optimization of measurement parameters to minimize protein consumption and to minimize the dilution effect and the DMSO content
2) Titration measurements of the protein against ligand by at least 12 titration steps to obtain a good s-curve fit
3) Repeat the same titration measurements with the ligand alone to enable correction
4) Check the stability of the protein once by titration against DMSO alone
5) Determination of the molar extinction coefficients of the ligand at 280 and 340 nm with help of an UV-spectrophotometer
6) Use Excel template for the correction of the measured raw data
7) Use GraphPad Prism software for the quadratic binding fit and the KD evaluation.

Sequence of hCereblon(M1-L442)_hDDB1(M1-H1140) (Q96SW2 whole entry): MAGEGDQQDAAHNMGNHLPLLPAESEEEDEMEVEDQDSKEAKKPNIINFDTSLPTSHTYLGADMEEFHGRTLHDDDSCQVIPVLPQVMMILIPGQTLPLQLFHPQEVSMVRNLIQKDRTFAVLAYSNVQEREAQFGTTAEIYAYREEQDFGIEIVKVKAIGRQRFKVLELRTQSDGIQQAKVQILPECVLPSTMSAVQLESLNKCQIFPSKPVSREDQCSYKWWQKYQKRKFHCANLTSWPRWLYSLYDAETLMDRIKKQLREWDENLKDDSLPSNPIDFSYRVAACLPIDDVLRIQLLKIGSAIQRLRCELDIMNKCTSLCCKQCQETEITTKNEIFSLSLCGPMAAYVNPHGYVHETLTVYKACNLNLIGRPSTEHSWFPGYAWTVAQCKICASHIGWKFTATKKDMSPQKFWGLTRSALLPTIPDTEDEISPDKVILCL
Sequence of hCereblon(M1-L442)_hDDB1(M1-H1140) (Q16531 whole entry partner): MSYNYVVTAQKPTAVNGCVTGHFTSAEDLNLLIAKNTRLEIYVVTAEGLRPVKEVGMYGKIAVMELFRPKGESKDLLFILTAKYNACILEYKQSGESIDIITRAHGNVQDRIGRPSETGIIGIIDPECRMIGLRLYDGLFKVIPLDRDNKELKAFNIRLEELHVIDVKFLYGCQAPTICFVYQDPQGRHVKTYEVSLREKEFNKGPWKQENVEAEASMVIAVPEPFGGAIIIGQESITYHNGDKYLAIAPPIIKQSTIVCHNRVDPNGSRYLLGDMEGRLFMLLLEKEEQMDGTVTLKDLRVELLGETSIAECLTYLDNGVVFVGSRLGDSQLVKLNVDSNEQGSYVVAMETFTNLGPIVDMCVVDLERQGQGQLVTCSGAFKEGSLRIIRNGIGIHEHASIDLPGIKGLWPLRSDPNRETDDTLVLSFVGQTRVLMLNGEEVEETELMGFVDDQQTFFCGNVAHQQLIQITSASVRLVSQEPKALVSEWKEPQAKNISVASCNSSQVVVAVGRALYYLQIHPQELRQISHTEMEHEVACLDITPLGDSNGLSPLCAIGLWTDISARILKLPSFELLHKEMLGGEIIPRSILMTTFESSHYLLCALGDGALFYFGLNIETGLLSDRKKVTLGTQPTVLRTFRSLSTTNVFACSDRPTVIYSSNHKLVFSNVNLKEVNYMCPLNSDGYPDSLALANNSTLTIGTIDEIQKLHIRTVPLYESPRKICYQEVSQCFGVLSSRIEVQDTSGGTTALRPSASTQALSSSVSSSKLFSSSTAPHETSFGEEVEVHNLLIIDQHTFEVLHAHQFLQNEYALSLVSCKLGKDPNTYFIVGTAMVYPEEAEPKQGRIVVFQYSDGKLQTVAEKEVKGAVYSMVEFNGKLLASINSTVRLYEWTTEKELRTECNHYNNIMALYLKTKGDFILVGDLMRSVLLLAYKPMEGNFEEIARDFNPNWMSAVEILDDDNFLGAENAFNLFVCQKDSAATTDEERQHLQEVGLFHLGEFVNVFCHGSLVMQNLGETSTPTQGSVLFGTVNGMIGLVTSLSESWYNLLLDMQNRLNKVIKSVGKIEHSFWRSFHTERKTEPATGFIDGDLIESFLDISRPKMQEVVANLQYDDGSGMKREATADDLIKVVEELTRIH

Kd [nM]	SMILES
28	CN1C(=O)CCC(NC(=O)[C@H]2CCCc3ccccc32)C1=O (stereo partly drawn) [Example 73, (1S)-N-(1-Methyl-2,6-dioxopiperidin-3-yl)-1,2,3,4-tetrahydronaphthalene-1-carboxamide]
3	O=C1CC[C@H](NC(=O)[C@H]2CCCc3ccccc32)C(=O)N1 [Example 27, (S)-N-((S)-2,6-Dioxopiperidin-3-yl)-1,2,3,4-tetrahydronaphthalene-1-carboxamide]
< 1	O=C1CC[C@H](NC(=O)N2CCc3cccnc32)C(=O)N1 [Example 29, (S)-N-(2,6-Dioxopiperidin-3-yl)-2,3-dihydro-1H-pyrrolo[2,3-b]pyridine-1-carboxamide]

SMILES	Kd [nM]
O=C1CC[C@@H](NC(=O)C2CCc3cccnc32)C(=O)N1 (mixture of isomers) [Example 22]	< 1

Source: patent publication US11802131B2, “Glutarimides for medical treatment” (C4 Therapeutics, Inc., priority 2017, dated 2023)
